Here are results for 3 compounds from publication PMC3095698 (Journal of molecular biology, 2011).

Format in all cases: biochemical
In assay [1] the target is 3×HA-DGKα (Homo sapiens, UniProt P23743). The assay is described as follows: […]-ATP phosphorylation in Triton X-100 mixed micelles, COS-7 lysate. Conditions: 0.1 mM ATP, 5 mM MgCl2, pH 7.5, 25 °C; DOPS in micelles; surface mole percent.
Assay [2] addresses 3×HA-DGKα (Homo sapiens, UniProt P23743, V656L). Described as above. As to conditions: 0.1 mM ATP, 5 mM MgCl2, pH 7.5, 25 °C; DOPS in micelles; surface mole percent.
Assay [3] concerns the target c-myc-PIP5K Iα (Homo sapiens, UniProt Q99755). The assay is described as follows: activation of DP-PI. Conditions: activator; 20 μM DP-PI(4)P, 50 μM PA, 50 μM ATP.

3×HA-DGKα (Homo sapiens, UniProt P23743, V656L), sequence (P23743 whole entry V656L): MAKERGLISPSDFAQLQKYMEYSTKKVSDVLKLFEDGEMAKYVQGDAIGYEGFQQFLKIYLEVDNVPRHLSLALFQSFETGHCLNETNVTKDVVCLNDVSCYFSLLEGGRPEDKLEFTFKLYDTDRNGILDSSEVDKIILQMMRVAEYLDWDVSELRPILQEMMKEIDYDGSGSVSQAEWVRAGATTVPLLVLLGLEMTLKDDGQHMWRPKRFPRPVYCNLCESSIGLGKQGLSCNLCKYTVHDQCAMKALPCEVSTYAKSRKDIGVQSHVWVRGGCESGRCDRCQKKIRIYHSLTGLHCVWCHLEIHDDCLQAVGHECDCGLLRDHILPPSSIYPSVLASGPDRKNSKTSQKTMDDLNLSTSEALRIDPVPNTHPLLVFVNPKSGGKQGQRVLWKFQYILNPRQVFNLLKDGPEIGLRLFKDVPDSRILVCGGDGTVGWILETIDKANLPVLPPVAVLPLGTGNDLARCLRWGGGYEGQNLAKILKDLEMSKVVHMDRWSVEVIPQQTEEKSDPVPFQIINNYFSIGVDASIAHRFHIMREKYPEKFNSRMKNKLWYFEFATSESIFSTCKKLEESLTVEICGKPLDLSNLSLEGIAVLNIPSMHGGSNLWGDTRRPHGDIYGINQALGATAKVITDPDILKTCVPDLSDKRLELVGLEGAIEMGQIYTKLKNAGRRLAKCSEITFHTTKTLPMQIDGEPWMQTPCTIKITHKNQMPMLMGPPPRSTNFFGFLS
3×HA-DGKα (Homo sapiens, UniProt P23743), sequence (P23743 whole entry): as the sequence (P23743 whole entry V656L) above, with L656V counted along it
c-myc-PIP5K Iα, sequence (Q99755 whole entry): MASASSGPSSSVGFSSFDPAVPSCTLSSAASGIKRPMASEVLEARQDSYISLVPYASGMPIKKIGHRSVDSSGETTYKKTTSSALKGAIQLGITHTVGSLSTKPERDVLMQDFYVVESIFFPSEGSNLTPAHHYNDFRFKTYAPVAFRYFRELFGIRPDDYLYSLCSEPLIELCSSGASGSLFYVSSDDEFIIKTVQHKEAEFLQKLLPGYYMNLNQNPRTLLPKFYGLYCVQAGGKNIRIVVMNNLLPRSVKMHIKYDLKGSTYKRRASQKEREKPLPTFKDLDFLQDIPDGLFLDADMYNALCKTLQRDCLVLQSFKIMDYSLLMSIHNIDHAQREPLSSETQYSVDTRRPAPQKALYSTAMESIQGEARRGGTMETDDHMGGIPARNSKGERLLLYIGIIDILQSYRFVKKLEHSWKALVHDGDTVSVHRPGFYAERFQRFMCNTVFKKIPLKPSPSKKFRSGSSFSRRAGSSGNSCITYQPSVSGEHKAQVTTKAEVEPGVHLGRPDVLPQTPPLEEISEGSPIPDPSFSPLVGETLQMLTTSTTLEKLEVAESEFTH

With `CCCCC/C=C\C/C=C\CCCCCCCC(=O)O[C@@H](CO)COC(=O)CCCCCCCCCCCCCCCCC` [SLG, 1-Stearoyl-2-linoleoyl-sn-glycerol], the “Km, mol%” value in assay [1] came to 2.8 ± 0.3 mol%; in assay [2], 1.5 ± 0.4 mol%.

For `CCCCC/C=C\C/C=C\C/C=C\C/C=C\CCCC(=O)OC[C@H](COP(=O)(O)O)OC(=O)CCC/C=C\C/C=C\C/C=C\C/C=C\CCCCC` [DAPA, 1,2-Diarachidonoyl phosphatidic acid], the fold activation in assay [3] came out at 12 fold.

For the compound `CCCCC/C=C\C/C=C\C/C=C\C/C=C\CCCC(=O)O[C@@H](CO)COC(=O)CCCCCCCCCCCCCCCCC` [SAG, 1-Stearoyl-2-arachidonoyl-sn-glycerol], the “Km, mol%” value in assay [1] is recorded as 2.1 ± 0.4 mol%; in assay [2] it was 1.8 ± 0.3 mol%.
